Reference: patent US8674118B2, “Compounds and methods for the treatment or prevention of flavivirus infections” (priority 2005, dated 2014)
Structures can show the parent of a compound that is named as a salt. Where two headings read alike, the source gives them in different places.

Test system: HCV RNA replication (replicon cell lines Huh-7, 5.2 and ET)
Assay: Cell-Based Luciferase Reporter HCV RNA Replication Assay
Conditions: Huh-7, 5.2 or ET replicon cells, luciferase counts after 4 days incubation, read-out: IC50

| SMILES | IC50 (Hepatitis C virus, Huh-7, 96 h) | IC50 |
| --- | --- | --- |
| CC1CCC(C(=O)N(c2cc(C3=CCCCC3)sc2C(=O)O)C2CCC(n3ccnn3)CC2)CC1 (stereo not drawn) [Compound 104, 5-cyclohex-1-enyl-3-[(trans-4-methyl-cyclohexanecarbonyl)-(cos-4-[1,2,3]triazol-1-yl-cyclohexyl)-amino]-thiophene-2-carboxylic acid] | < 5 µM |  |
| CC1CCC(C(=O)N(c2cc(C3=CCCCC3)sc2C(=O)O)C2CCC(n3ccnn3)CC2)CC1 (stereo not drawn) [Compound 105, 5-cyclohex-1-enyl-3-[(trans-4-methyl-cyclohexanecarbonyl)-(trans-4-[1,2,3]triazol-1-cyclohexyl)-amino]-thiophene-2-carboxylic acid] |  | < 5 µM |
| CC1CCC(C(=O)N(c2cc(C3=CCCCC3)sc2C(=O)O)C2CCC(C)(C#N)CC2)CC1 (stereo not drawn) [Compound 106, 3-[(trans-4-cyano-4-methyl-cyclohexyl)-(trans-4-methylcyclohexanecarbonyl)-amino]-5-cyclohex-1-enyl-thiophene-2-carboxylic acid] |  | < 5 µM |
| COCC(COC)N(c1cc(C2=CCCCC2)sc1C(=O)O)C(=O)[C@H]1CC[C@H](C)CC1 [Compound 111, 5-cyclohex-1-enyl-3-[(2-methoxy-1-methoxymethyl-ethyl)-(trans-4-methyl-cyclohexanecarbonyl)-amino]-thiophene-2-carboxylic acid] | < 5 µM |  |
| COC1CCC(N(C(=O)C2CCC(C)CC2)c2cc(C3CCCCC3)sc2C(=O)O)CC1 (stereo not drawn) [Compound 112, 5-cyclohexyl-3-[(4-trans-methoxy-cyclohexyl)-(4-trans-methyl-cyclohexanecarbonyl)-amino]-thiophene-2-carboxylic acid] | < 5 µM |  |
| COC1CCC(N(C(=O)C2CCC(C)CC2)c2cc(C3CCC(=O)CC3)sc2C(=O)O)CC1 (stereo not drawn) [Compound 113, 3-[(4-trans-methoxy-cyclohexyl)-(4-trans-methyl-cyclohexanecarbonyl)-amino]-5-(4-oxo-cyclohexyl)-thiophene-2-carboxylic acid] | < 5 µM |  |
| COCOC1CCC(N(C(=O)C2CCC(C)CC2)c2cc(C3=CCC(C)(C)CC3)sc2C(=O)O)CC1 (stereo not drawn) [Compound 114, 5-(4,4-dimethyl-cyclohex-1-enyl)-3-[(4-trans-methoxymethoxy-cyclohexyl)-(4-trans-methyl-cyclohexanecarbonyl)-amino]-thiophene-2-carboxylic acid] | < 5 µM |  |
| CC1CCC(C(=O)N(c2cc(C3=CCCCC3)sc2C(=O)O)C2CC=CCC2)CC1 (stereo not drawn) [Compound 115, RS-5-cyclohex-1-enyl-3-[cyclohex-3-enyl-(4-trans-methyl-cyclohexanecarbonyl)-amino]-thiophene-2-carboxylic acid] | < 5 µM |  |
| COCOC1CCC(N(C(=O)C2CCC(C)CC2)c2cc(C3CCC(C)(C)CC3)sc2C(=O)O)CC1 (stereo not drawn) [Compound 116, 5-(4,4-dimethyl-cyclohexyl)-3-[(4-trans-methoxymethoxy-cyclohexyl)-(4-trans-methyl-cyclohexanecarbonyl)-amino]-thiophene-2-carboxylic acid] | < 5 µM |  |
| CC1(C)CCC(c2cc(N(C(=O)[C@H]3CC[C@H](C)CC3)[C@H]3CC[C@@H](n4cncn4)CC3)c(C(=O)O)s2)CC1 [Compound 117, 5-(4,4-dimethyl-cyclohexyl)-3-[(trans-4-methyl-cyclohexanecarbonyl)-(cis-4-[1,2,4]triazol-1-yl-cyclohexyl)-amino]-thiophene-2-carboxylic acid; hydrochloride] | < 5 µM |  |
| CC1CCC(C(=O)N(c2cc(C3CCC(C)(C)CC3)sc2C(=O)O)C2CCC(n3cncn3)CC2)CC1 (stereo not drawn) [Compound 118, 5-(4,4-dimethyl-cyclohexyl)-3-[(trans-4-methyl-cyclohexanecarbonyl)-(trans-4-[1,2,4]triazol-1-cyclohexyl)-amino]-thiophene-2-carboxylic acid; hydrochloride] | < 5 µM |  |
| COC1CCC(N(C(=O)C2CCC(C)CC2)c2cc(C3CCC(F)(F)CC3)sc2C(=O)O)CC1 (stereo not drawn) [Compound 122, 5-(4,4-difluoro-cyclohexyl)-3-[(4-trans-methoxy-cyclohexyl)-(4-trans-methyl-cyclohexanecarbonyl)-amino]-thiophene-2-carboxylic acid] | < 5 µM |  |
| COC1CCC(N(C(=O)C2CCC(C)CC2)c2cc(C3CC=C(F)CC3)sc2C(=O)O)CC1 (stereo not drawn) [Compound 123, RS-5-(4-fluoro-cyclohex-3-enyl)-3-[(4-trans-methoxy-cyclohexyl)-(4-trans-methyl-cyclohexanecarbonyl)-amino]-thiophene-2-carboxylic acid] | < 5 µM |  |
| CCOCO[C@H]1CC[C@H](N(c2cc(C3=CCCCC3)sc2C(=O)O)C(=O)[C@H]2CC[C@H](C)CC2)CC1 [Compound 125, 5-cyclohex-1-enyl-3-[(trans-4-ethoxymethoxy-cyclohexyl)-(trans-4-methyl-cyclohexanecarbonyl)-amino]-thiophene-2-carboxylic acid] | < 5 µM |  |
| CC1CCC(C(=O)N(c2cc(C3=CCCCC3)sc2C(=O)O)C2CCN(c3ccccc3)CC2)CC1 (stereo not shown) [Compound 127, 5-cyclohex-1-enyl-3-[(trams, 4-methyl-cyclohexanecarbonyl)-(1-phenyl-piperidin-4-yl)-amino]-thiophene-2-carboxylic acid] | < 5 µM |  |
| CC1CCC(C(=O)N(c2cc(C3=CCCCC3)sc2C(=O)O)C2CCC3(CC2)CC(=O)N(C)C3)CC1 (stereo not drawn) [Compound 128, 5-cyclohex-1-enyl-3-[(trans-4-methyl-cyclohexanecarbonyl)-trans(2-methyl-3-oxo-2-aza-spiro[4.5]dec-8-yl)-amino]-thiophene-2-carboxylic acid] |  | < 5 µM |
| CCN1CC2(CCC(N(C(=O)C3CCC(C)CC3)c3cc(C4=CCCCC4)sc3C(=O)O)CC2)CC1=O (stereo not drawn) [Compound 129, 5-cyclohex-1-enyl-3-[trans(2-ethyl-33-oxo-2-aza-spiro[4.5]dec-8-yl)-(trans-4-methylcyclohexanecarbonyl)-amino]-thiophene-2-carboxylic acid] | < 5 µM |  |
| CCN1CC2(CCC(N(C(=O)C3CCC(C)CC3)c3cc(C4=CCCCC4)sc3C(=O)O)CC2)CC1=O (stereo not drawn) [Compound 130, 5-cyclohex-1-enyl-3-[cis(2-ethyl-3-oxo-2-aza-spiro[4.5]dec-8-yl)-(trans-4-methylcyclohexanecarbonyl)-amino]-thiophene-2-carboxylic acid] |  | < 5 µM |
| COCC1CCC(N(C(=O)C2CCC(C)CC2)c2cc(C3=CCCCC3)sc2C(=O)O)CC1 (stereo not drawn) [Compound 131, 5-cyclohex-1-enyl-3-[(4-cis-methoxymethyl-cyclohexyl)-(4-trans-methyl-cyclohexanecarbonyl)-amino]-thiophene-2-carboxylic acid] |  | < 5 µM |
| COCC1CCC(N(C(=O)C2CCC(C)CC2)c2cc(C3=CCCCC3)sc2C(=O)O)CC1 (stereo not drawn) [Compound 132, 5-cyclohex-1-enyl-3-[(4-trans-methoxymethyl-cyclohexyl)-(4-trans-methyl-cyclohexanecarbonyl)-amino]-thiophene-2-carboxylic acid] |  | < 5 µM |
| CC(C)C(=O)N[C@H]1CC[C@@H](N(c2cc(C3=CCCCC3)sc2C(=O)O)C(=O)[C@H]2CC[C@H](C)CC2)CC1 [Compound 133, 5-cyclohex-1-enyl-3-[(cis-4-isobutyrylamino-cyclohexyl)-(trans-4-methyl-cyclohexanecarbonyl)-amino]-thiophene-2-carboxylic acid] | < 5 µM |  |
| CC(C)C(=O)N[C@H]1CC[C@H](N(c2cc(C3=CCCCC3)sc2C(=O)O)C(=O)[C@H]2CC[C@H](C)CC2)CC1 [Compound 134, 5-cyclohex-1-enyl-3-[(trans-4-isobutyrylamino-cyclohexyl)-(trans-4-methyl-cyclohexanecarbonyl)-amino]-thiophene-2-carboxylic acid] | < 5 µM |  |
| CC1(C)CCC(c2cc(N(C(=O)[C@H]3CC[C@H](C)CC3)[C@H]3CC[C@H](n4ccnn4)CC3)c(C(=O)O)s2)CC1 [Compound 135, 5-(4,4-dimethyl-cyclohexyl)-3-[(trans-4-methyl-cyclohexanecarbonyl)-(trans-4-[1,2,3]triazol-1-yl-cyclohexyl)-amino]-thiophene-2-carboxylic acid] | < 5 µM |  |
| C[C@H]1CC[C@H](C(=O)N(c2ccc3c(c2)OCO3)c2cc(C3=CCCCC3)sc2C(=O)O)CC1 [Compound 136, 3-[benzo[1,3]dioxol-5-yl-(trans-4-methyl-cyclohexanecarbonyl)-amino]-5-cyclohex-1-enyl-thiophene-2-carboxylic acid] | < 5 µM |  |
| COC1CCC(N(C(=O)C2CCC(C)CC2)c2cc(C3CCC(F)CC3)sc2C(=O)O)CC1 (stereo not drawn) [Compound 137, 5-(4-ciz-trans-fluoro-cyclohexyl)-3-[(4-trans-methoxy-cyclohexyl)-(4-trans-methyl-cyclohexanecarbonyl)-amino]-thiophene-2-carboxylic acid] | < 5 µM |  |
| COC1CCC(N(C(=O)C2CCC(C)CC2)c2cc(C3=CCCC(C)(C)C3)sc2C(=O)O)CC1 (stereo not drawn) [Compound 138, 5-(5,5-dimethyl-cyclohex-1-enyl)-3-[(4-trans-methoxy-cyclohexyl)-(4-trans-methyl-cyclohexanecarbonyl)-amino]-thiophene-2-carboxylic acid] | < 5 µM |  |
| CC(C)C(=O)N1CCC(N(c2cc(C3=CCCCC3)sc2C(=O)O)C(=O)[C@H]2CC[C@H](C)CC2)CC1 [Compound 141, 5-Cyclohex-1-enyl-3-[(1-isobutyryl-piperidin-4-yl)-(trans-4-methylcyclohexanecarbonyl)-amino]-thiophene-2-carboxylic acid] | < 5 µM |  |
| CSCO[C@H]1CC[C@H](N(c2cc(C3=CCCCC3)sc2C(=O)O)C(=O)[C@H]2CC[C@H](C)CC2)CC1 [Compound 142, 5-cyclohex-1-enyl-3-[(trans-4-methyl-cyclohexanecarbonyl)-(trans-4-methylsulfanylmethoxy-cyclohexyl)-amino]-thiophene-2-carboxylic acid] | < 5 µM |  |
